{"source": "patent EP2845588A1", "about": "“PIN1 inhibitors for use in the prevention and/or treatment of theileriosis, and related applications” (Centre National de la Recherche Scientifique (CNRS), priority 2013, dated 2015)", "key": {"[1]": {"biological_target": "T1, PIN1 (Homo sapiens, UniProt Q13526)", "T1 sequence (Q13526 whole entry)": "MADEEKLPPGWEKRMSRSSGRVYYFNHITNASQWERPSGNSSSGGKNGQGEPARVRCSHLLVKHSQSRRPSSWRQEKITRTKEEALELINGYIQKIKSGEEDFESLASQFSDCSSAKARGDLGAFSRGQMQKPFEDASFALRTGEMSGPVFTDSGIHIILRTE", "conditions": "cited from earlier work; for IC50: read-out: PIN1 inhibition IC50"}, "[2]": {"biological_target": "T1, PIN1", "conditions": "cited from earlier work"}, "[3]": {"system": "non-parasitized BL3 cells", "assay": "Cell proliferation, live cell count after trypan blue exclusion, BL3", "assay_type": "cell-based, bovine", "conditions": "BL3 / uninfected cells", "method": "All infected bovine cell lines used in this study were previously described: TBL3 cells were derived from in vitro infection of the spontaneous bovine-B lymphosarcoma cell line, BL3, with Hissar stock of T.annulata. The TpMD409 lymphocyte cell line are infected with T. parva. The culture conditions of these cell lines were previously described by Moreau et al., 1999. Cells were cultured in RPMI 1640 (Gibco-BRL, Paisley, UK), supplemented with 10% heat-inactivated Fetal calf serum, 4mM L-Glutamine, 25mM HEPES, 10µM β-mercaptoethanol and 100µg/ml penicillin/streptomycin in a humidified 5%CO2 atmosphere at 37°C. HepG2, NIH/3T3 and MEF cells lines were cultured in DMEM (Gibco-BRL, Paisley, UK), supplemented with 10% heat-inactivated Fetal calf serum, 4mM L-Glutamine, 25 mM HEPES, 10µM β-mercaptoethanol and 100µg/ml penicillin/streptomycin in a humidified 5% CO2 atmosphere at 37°C. Cell numbers, as judged by Trypan Blue exclusion test, were determined by counting cells using a Countess automated cell counter (Invitrogen, CA, USA). The anti-parasite drug Buparvaquone (BW720c) was used at 200ng/ml for 72 hours. BW720c has no effect on growth of uninfected cells.\nCells were treated with either Juglone at 5 µM resuspended in Ethanol (Sigma, St Louis, MO, Ref.: H47003), or PiB at 1 µM resuspended in DMSO (Sigma, Ref.: B7688), or Dimethyloxalylglycine DMOG at 0.5 mM resuspended in DMSO (Tebu-bio, MO, USA)."}, "[4]": {"system": "FBW7 and c-Jun mRNA in TBL3 cells", "assay": "RT-qPCR of FBW7 and c-Jun mRNA in TBL3 cells", "assay_type": "cell-based, bovine", "method": "Total cellular RNAs were extracted using an RNeasy Plus Mini Kit (Qiagen, Hilden, Germany) and parasite RNAs were extracted using the classical Trizol Protocol. cDNA synthesis was performed with the Reverse Transcriptase Superscript III (Invitrogen, CA, USA).\nQuantitative PCR amplification was performed in the ABI 7500 machine (Applied Biosystems, CA, USA) using the Sybr Green reagent (Applied Biosystems, CA, USA) using the primers listed in Table 5 below. The detection of a single product was verified by dissociation curve analysis. Relative quantities of mRNA were analyzed using the delta Ct method. The βactin qPCR was used for normalization. Table 5: qPCR primers"}}, "note": "Where two headings read alike, the source gives them in different places.", "data": [{"compound": "O=C1Nc2ccc([N+](=O)[O-])cc2/C1=C1/Nc2ccccc2/C1=N/O", "note": "[(3Z)-3-[(3Z)-3-hydroxyiminoindolin-2-ylidene]-5-nitro-indolin-2-one]", "values": [{"measurement": "PIN1 inhibition (Ki and/or IC50)", "setting": "[1]; cell prints neither Ki nor IC50", "value": "0.5 to 2.5", "unit": "µM"}]}, {"compound": "CCOC(=O)CN1C(=O)c2cccc3cccc(c23)C1=O", "note": "[Ethyl (1,3-dioxo-1H-benzo[de]isoquinolin-2(3H)-yl)acetate]", "values": [{"measurement": "IC50", "setting": "[1]", "value": 5, "unit": "µM"}]}, {"compound": "Ac-Lys(N-biotinoyl)-Ala-Ala-Bth-D-Thr(PO3H2)-Pip-Nal-Gln-NH2", "values": [{"measurement": "Ki", "setting": "[2]; read-out: PIN1 inhibition Ki", "value": 0.0012, "unit": "µM"}]}, {"compound": "S=C(SC(=S)N1CCCCC1)N1CCCCC1", "note": "[1-Piperidinecarbodithioic acid, anhydrosulfide]", "values": [{"measurement": "IC50", "setting": "[1]", "value": 4.1, "unit": "µM"}]}, {"compound": "CN1C(=O)c2ccc3c4c(ccc(c24)C1=O)C(=O)N(C)C3=O", "note": "[2,7-Dimethylbenzo[Imn][3,8]phenanthroline-1,3,6,8(2H,7H)-tetrone]", "values": [{"measurement": "IC50", "setting": "[1]", "value": 2, "unit": "µM"}]}, {"compound": "Ac-Phe-Phe-pSer-Ψ[(Z)CHdC]-Pro-Arg-NH2", "values": [{"measurement": "IC50", "setting": "[2]; read-out: PIN1 inhibition IC50", "value": 1.3, "unit": "µM"}, {"measurement": "Ki", "setting": "[2]; read-out: PIN1 inhibition Kis", "value": 1.74, "unit": "µM"}]}, {"compound": "O=C1C=CC(=O)c2c(O)cccc21", "note": "[Juglone, 5-Hydroxy-1,4-naphthlenedione]", "values": [{"measurement": "proliferation of non-parasitized cells", "setting": "[3]", "value": "no effect"}, {"measurement": "mRNA expression", "setting": "[4]", "value": "no effect"}]}, {"compound": "CRYPEVEIC", "values": [{"measurement": "Ki", "setting": "[2]; read-out: PIN1 inhibition Ki", "value": 0.52, "unit": "µM"}]}, {"compound": "CCOC(=O)CN1C(=O)c2ccc3c4ccc5c6c(ccc(c7ccc(c2c37)C1=O)c64)C(=O)N(CC(=O)OCC)C5=O", "note": "[Diethyl 2,2'-(1,3,8,10-tetraoxo-1,3,8,10-tetrahydroisoquinolino[4 ',5',6':6,5,10]anthra[2,1,9-def]isoquinoline-2,9-diyl)diacetate]", "values": [{"measurement": "IC50", "setting": "[1]", "value": 1.5, "unit": "µM"}]}]}
